*1 amine or outer side, *2 acyl side, *3 side chain or, on linkers, in order; H or OH if unused. Where a SMILES comes first, the peptide text is derived from it. Bridges are numbered along the chain shown (N, C = ends). [ ]: non-standard residue; d: D form. The star is where a group is joined. ξ: configuration not given here. NMeHph(3-OMe-4-CONHMe) = CNC(=O)c1ccc(CC[C@H](NC)C(=O)O)cc1OC; dhPhe(4-CONHMe,3-OMe) = CNC(=O)c1ccc(CC[C@@H](N)C(=O)O)cc1OC; hPhe(3-OMe,4-CONHMe) = CNC(=O)c1ccc(CC[C@H](N)C(=O)O)cc1OC; Phe(3-CONHMe,4-OMe) = CNC(=O)c1cc(C[C@H](N)C(=O)O)ccc1OC; NMeAbu(4-morpholino) = CN[C@@H](CCN1CCOCC1)C(=O)O; NMeAla(4-thiazolyl) = CN[C@@H](Cc1cscn1)C(=O)O; X11 = CNC(=O)c1ccc(CCN(CC(=O)[*:2])[*:1])cc1OC; NMePhe(3-Cl) = CN[C@@H](Cc1cccc(Cl)c1)C(=O)O; NMehPhe = CN[C@@H](CCc1ccccc1)C(=O)O; X9 = O=C([C@@H](CN[*:1])COCCO)[*:2]; NMeF = CN[C@@H](Cc1ccccc1)C(=O)O; NMeGABA = CN(CCCC(=O)[*:2])[*:1]; NMeI = CC[C@H](C)[C@H](NC)C(=O)O; NMeL = CN[C@@H](CC(C)C)C(=O)O; Propyl(2R-OH) = C[C@@H](O)C*; NMeV = CN[C@H](C(=O)O)C(C)C; ξIle = CC[C@H](C)C(N)C(=O)O; NMeAbu = CC[C@H](NC)C(=O)O; NMeA = CN[C@@H](C)C(=O)O; Piperidide = C1CCN(*)CC1; dNMeA = CN[C@H](C)C(=O)O; CH2CONHMe = CNC(=O)C*; Me2NCH2CH2 = CN(C)CC*; NBuGly = CCCCNCC(=O)O; NPrGly = CCCNCC(=O)O; Propyl(3-OH) = OCCC*; X3 = C[C@H](O)C*; Sar = CNCC(=O)O; tBu = CC(C)(C)*
assay: in vitro; conditions: human, Caco-2, Caco-2

Structure (SMILES)	Papp [×10⁻⁶ cm/s]
CCCCN1CC(=O)N(C)[C@@H](C(C)C)C(=O)N[C@H](C(=O)N2CCCCC2)CC(=O)N(C)[C@@H](C)C(=O)N[C@@H](CC(C)C)C(=O)N(C)[C@@H](CC(C)C)C(=O)N(C)[C@@H](Cc2ccccc2)C(=O)N[C@@H](CC(C)C)C(=O)N(C)[C@@H](Cc2ccccc2)C(=O)N(C)[C@@H](CCN2CCOCC2)C(=O)N[C@@H]([C@@H](C)O)C1=O [pd453] ([NMeA]L[NMeL][NMeF]L[NMeF][NMeAbu(4-morpholino)]T[NBuGly][NMeV]D-Piperidide; lactam N-11)	2.3
CC(C)C[C@@H]1NC(=O)[C@H](CC(C)C)N(C)C(=O)CCCN(C)C(=O)C[C@@H](C(=O)N2CCCCC2)NC(=O)[C@H](CC(C)C)N(C)C(=O)[C@H](CC(C)C)N(C)C(=O)[C@H]([C@@H](C)O)NC(=O)[C@H](CC(C)C)N(C)C(=O)[C@H](COCCN(C)C)NC(=O)[C@H](Cc2ccccc2)N(C)C(=O)[C@H](Cc2ccccc2)N(C)C1=O [pd54] ([NMeGABA][NMeL]L[NMeF][NMeF]S(Me2NCH2CH2)[NMeL]T[NMeL][NMeL]D-Piperidide; lactam N-11)	0.073

same assay, conditions: human, Caco-2, Caco-2 (cm/sec)

Structure (SMILES)	Papp [×10⁻⁶ cm/s]
CC(C)C[C@@H]1NC(=O)[C@H](Cc2ccccc2)N(C)C(=O)[C@@H](C(C)C)NC(=O)C[C@@H](C(=O)N2CCCCC2)NC(=O)[C@H](CC(C)C)N(C)C(=O)[C@H](Cc2cccc(Cl)c2)N(C)C(=O)[C@H](COCCCO)NC(=O)[C@H](CC(C)C)N(C)C(=O)CN(C)C(=O)[C@H]([C@@H](C)O)NC(=O)[C@H](CC(C)C)N(C)C1=O [AP90] ([dV][NMeF]L[NMeL]T[Sar][NMeL]S(Propyl(3-OH))[NMePhe(3-Cl)][NMeL]D-Piperidide; lactam N-11)	3.3
CNC(=O)c1ccc(CC[C@@H]2NC(=O)[C@H](CC(C)C)N(C)C(=O)[C@H]([C@@H](C)O)NC(=O)[C@H](CC(C)C)N(C)C(=O)[C@H](CC(C)C)N(C)C(=O)[C@@H](C)N(C)C(=O)C[C@@H](C(=O)N3CCCCC3)NC(=O)[C@H](CC(C)C)N(C)C2=O)cc1OC [AP262] ([dNMeA][NMeL][NMeL]T[NMeL][hPhe(3-OMe,4-CONHMe)][NMeL]D-Piperidide; lactam N-8)	0.17
CC(C)C[C@@H]1NC(=O)[C@H](CC(C)C)N(C)C(=O)[C@H](Cc2cccc(Cl)c2)N(C)C(=O)[C@H](COCCO)CNC(=O)[C@H](CC(C)C)N(C)C(=O)CCCN(C)C(=O)C[C@@H](C(=O)N2CCCCC2)NC(=O)[C@H](CC(C)C)N(C)C(=O)[C@H](CC(C)C)N(C)C(=O)[C@H]([C@@H](C)O)NC(=O)[C@H](CC(C)C)N(C)C1=O [AP129] ([NMeGABA][NMeL][X9][NMePhe(3-Cl)][NMeL]L[NMeL]T[NMeL][NMeL]D-Piperidide; lactam N-11)	0.46
CC[C@H](C)[C@@H]1NC(=O)[C@H](CC(C)C)N(C)C(=O)CCCN(C)C(=O)C[C@@H](C(=O)N2CCCCC2)NC(=O)[C@H](CC(C)C)N(C)C(=O)[C@H](CC(C)C)N(C)C(=O)[C@H]([C@@H](C)O)NC(=O)[C@H](CC(C)C)N(C)C(=O)[C@H](COCCO)CNC(=O)[C@H](CC(C)C)N(C)C(=O)[C@H](Cc2cccc(Cl)c2)N(C)C1=O [AP130] ([NMeGABA][NMeL]I[NMePhe(3-Cl)][NMeL][X9][NMeL]T[NMeL][NMeL]D-Piperidide; lactam N-11)	0.46
CCCCN1CC(=O)N(C)[C@@H](Cc2ccccc2)C(=O)N(C)[C@@H](CC(C)C)C(=O)N[C@@H](COC(C)(C)C)C(=O)N(C)[C@@H](CC(C)C)C(=O)N[C@H](C(=O)N2CCCCC2)CC(=O)N(C)CC(=O)N(C)[C@@H](Cc2ccccc2)C(=O)N[C@@H](C(C)C)C(=O)N(C)[C@@H](CC(C)C)C(=O)N[C@@H](COC[C@@H](C)O)C1=O [AP87] ([Sar][NMeF]V[NMeL]S(Propyl(2R-OH))[NBuGly][NMeF][NMeL]S(tBu)[NMeL]D-Piperidide; lactam N-11)	1
CC[C@H]1C(=O)N[C@H](CCc2ccc(C(=O)NC)c(OC)c2)C(=O)N(C)[C@@H](CC(C)C)C(=O)N(C)[C@@H](CC(C)C)C(=O)N[C@@H](C(C)C)C(=O)N(C)[C@@H](Cc2ccccc2)C(=O)N(C)[C@@H](CC(C)C)C(=O)N[C@@H]([C@@H](C)O)C(=O)N(C)CC(=O)N(C)[C@@H](CC(C)C)C(=O)N[C@H](C(=O)N2CCCCC2)CC(=O)N1C [AP213] ([NMeAbu][dhPhe(4-CONHMe,3-OMe)][NMeL][NMeL]V[NMeF][NMeL]T[Sar][NMeL]D-Piperidide; lactam N-11)	0.34
CCCN1CC(=O)N(C)[C@@H](Cc2cccc(Cl)c2)C(=O)N(C)[C@@H](CC(C)C)C(=O)N[C@@H](COC[C@H](C)O)C(=O)N(C)[C@@H](CC(C)C)C(=O)N[C@H](C(=O)N2CCCCC2)CC(=O)N(C)CC(=O)N(C)[C@@H](Cc2ccccc2)C(=O)NC([C@@H](C)CC)C(=O)N(C)[C@@H](CC(C)C)C(=O)N[C@@H]([C@@H](C)O)C1=O (stereo partly drawn) [AP68] ([Sar][NMeF][ξIle][NMeL]T[NPrGly][NMePhe(3-Cl)][NMeL]S(X3)[NMeL]D-Piperidide; lactam N-11)	0.24
CC[C@H](C)[C@H]1C(=O)N[C@@H](Cc2ccc(O)cc2)C(=O)N(C)CC(=O)N(C)[C@@H](CC(C)C)C(=O)N[C@H](C(=O)N2CCCCC2)CC(=O)N(C)[C@@H](C)C(=O)N[C@@H](C(C)C)C(=O)N(C)[C@@H](CC(C)C)C(=O)N(C)[C@@H](CC(C)C)C(=O)N[C@@H](C)C(=O)N(C)[C@@H](Cc2ccccc2)C(=O)N1C [pd126] ([NMeA]V[NMeL][NMeL]A[NMeF][NMeI]Y[Sar][NMeL]D-Piperidide; lactam N-11)	0.42
CC[C@H]1C(=O)N[C@@H](CC(C)C)C(=O)N(C)[C@@H](CC(C)C)C(=O)N(C)[C@@H](Cc2ccccc2)C(=O)N[C@@H](CC(C)C)C(=O)N(C)[C@@H](CC(C)C)C(=O)N(CCc2ccc(C(=O)NC)c(OC)c2)CC(=O)N[C@@H]([C@@H](C)O)C(=O)N(C)CC(=O)N(C)[C@@H](CC(C)C)C(=O)N[C@H](C(=O)N2CCCCC2)CC(=O)N1C [AP223] ([NMeAbu]L[NMeL][NMeF]L[NMeL][X11]T[Sar][NMeL]D-Piperidide; lactam N-11)	1.6
CC[C@H](C)[C@@H]1NC(=O)[C@H](CC(C)C)N(C)C(=O)CCCN(C)C(=O)C[C@@H](C(=O)N2CCCCC2)NC(=O)[C@H](CC(C)C)N(C)C(=O)[C@H](CCc2ccc(C(=O)NC)c(OC)c2)N(C)C(=O)[C@H]([C@@H](C)O)NC(=O)[C@H](CC(C)C)N(C)C(=O)[C@H](COC(C)(C)C)NC(=O)[C@H](CC(C)C)N(C)C(=O)[C@H](Cc2ccccc2)N(C)C1=O [AP228] ([NMeGABA][NMeL]I[NMeF][NMeL]S(tBu)[NMeL]T[NMeHph(3-OMe-4-CONHMe)][NMeL]D-Piperidide; lactam N-11)	0.84
CCCCN1CC(=O)N(C)[C@@H](Cc2ccccc2)C(=O)N(C)[C@@H](CC(C)C)C(=O)N[C@@H](CC(C)C)C(=O)N(C)[C@@H](CC(C)C)C(=O)N[C@H](C(=O)N2CCCCC2)CC(=O)N(C)CC(=O)N(C)[C@@H](CC(C)C)C(=O)N[C@H](CCc2ccc(C(=O)NC)c(OC)c2)C(=O)N(C)[C@@H](CC)C(=O)N[C@@H]([C@@H](C)O)C1=O [AP214] ([Sar][NMeL][dhPhe(4-CONHMe,3-OMe)][NMeAbu]T[NBuGly][NMeF][NMeL]L[NMeL]D-Piperidide; lactam N-11)	0.84
CCCCN1CC(=O)N(C)[C@@H](Cc2cccc(Cl)c2)C(=O)N(C)[C@@H](CC(C)C)C(=O)N[C@@H](COCCCO)C(=O)N(C)[C@@H](CC(C)C)C(=O)N[C@H](C(=O)N2CCCCC2)CC(=O)N(C)CC(=O)N(C)[C@@H](Cc2ccccc2)C(=O)N[C@@H]([C@@H](C)CC)C(=O)N(C)[C@@H](CC(C)C)C(=O)N[C@@H]([C@@H](C)O)C1=O [AP96] ([Sar][NMeF]I[NMeL]T[NBuGly][NMePhe(3-Cl)][NMeL]S(Propyl(3-OH))[NMeL]D-Piperidide; lactam N-11)	0.17
CCCCN1CC(=O)N(C)[C@@H](CC(C)C)C(=O)N[C@@H](Cc2ccc(OC)c(C(=O)NC)c2)C(=O)N(C)[C@@H](CC(C)C)C(=O)N(C)[C@@H](CC(C)C)C(=O)N[C@H](C(=O)N2CCCCC2)CC(=O)N[C@H](CC(C)C)C(=O)N(C)[C@@H](Cc2ccccc2)C(=O)N[C@@H](C(C)C)C(=O)N(C)[C@@H](CC(C)C)C(=O)N[C@@H]([C@@H](C)O)C1=O [AP36] ([dL][NMeF]V[NMeL]T[NBuGly][NMeL][Phe(3-CONHMe,4-OMe)][NMeL][NMeL]D-Piperidide; lactam N-11)	0.26
CC[C@H](C)[C@@H]1NC(=O)[C@H](CC(C)C)N(C)C(=O)[C@@H](C)NC(=O)C[C@@H](C(=O)N2CCCCC2)NC(=O)[C@H](CC(C)C)N(C)C(=O)[C@H](Cc2ccccc2)N(C)C(=O)[C@H](COC(C)(C)C)NC(=O)[C@H](CC(C)C)N(C)C(=O)[C@H](CC)N(C)C(=O)[C@H]([C@@H](C)O)NC(=O)CN(CCc2ccc(C(=O)NC)c(OC)c2)C1=O [AP222] ([dA][NMeL]I[X11]T[NMeAbu][NMeL]S(tBu)[NMeF][NMeL]D-Piperidide; lactam N-11)	0.31

same assay, conditions: human, Caco-2, Caco-2 (cm/sec) Papp

Structure (SMILES)	Papp [×10⁻⁶ cm/s]
CC(C)C[C@@H]1NC(=O)[C@H](Cc2ccccc2)N(C)C(=O)[C@H](C)N(C)C(=O)C[C@@H](C(=O)N2CCCCC2)NC(=O)[C@H](CC(C)C)N(C)C(=O)[C@H](Cc2ccccc2)N(C)C(=O)[C@H](Cc2ccccc2)NC(=O)[C@H](Cc2cscn2)N(C)C(=O)[C@H](C)N(C)C(=O)[C@H]([C@@H](C)O)NC(=O)[C@H](CC(C)C)N(C)C1=O [pd226] ([NMeA][NMeF]L[NMeL]T[NMeA][NMeAla(4-thiazolyl)]F[NMeF][NMeL]D-Piperidide; lactam N-11)	0.68
CC(C)C[C@H]1C(=O)N(C)[C@@H](Cc2ccccc2)C(=O)N(C)[C@@H](CC(C)C)C(=O)N[C@H](C(=O)N(C)[C@@H](Cc2ccccc2)C(=O)N[C@@H](Cc2ccccc2)C(=O)N2CCCCC2)CC(=O)N[C@H](C(C)C)C(=O)N[C@@H](C)C(=O)N[C@@H]([C@@H](C)O)C(=O)N(C)[C@@H](C)C(=O)N[C@@H](Cc2ccccc2)C(=O)N1C [pd241] ([dV]AT[NMeA]F[NMeL][NMeF][NMeL]D[NMeF]F-Piperidide; lactam N-9)	0.058

same assay, conditions: human, Caco-2, Caco-2 (membrane permeability)

Structure (SMILES)	Papp [×10⁻⁶ cm/s]
CNC(=O)COC[C@@H]1NC(=O)[C@H](CC(C)C)N(C)C(=O)C[C@@H](C(=O)N2CCCCC2)NC(=O)[C@H](CC(C)C)N(C)C(=O)CN(C)C(=O)[C@H]([C@@H](C)O)NC(=O)[C@H](CC(C)C)N(C)C(=O)[C@H](CCc2ccccc2)N(C)C(=O)[C@H](CC(C)C)NC(=O)[C@H](Cc2ccccc2)N(C)C(=O)[C@H](CC(C)C)N(C)C1=O [Compound I03] ([NMeL]S(CH2CONHMe)[NMeL][NMeF]L[NMehPhe][NMeL]T[Sar][NMeL]D-Piperidide; lactam N-11)	0.25
